From paper PMC8067507, “Aryl Urea Based Scaffolds for Multitarget Drug Discovery in Anticancer Immunotherapies” (Pharmaceuticals, 2021)

How the values were obtained:
c-Myc [1] = assay: c-Myc quantification by flow cytometry in A-549; format: cell-based, human; settings: A-549, 10 μM, 24 h, referred to control (DMSO)
Description: (§1) We evaluated the effect of the selected compounds on PD-L1 and on c-Myc proteins by flow cytometry after 24 h treatment at 10 μM concentration of compounds. Both, PD-L1 and c-Myc were relatively determined using DMSO treated cells as a negative control and BMS-8 as a positive one.
(§2) For the detection of total PD-L1 and c-Myc, cancer cells were seeded (3 × 10^5 cells/well) in 6-well plates and were incubated with the corresponding compounds for 24 h. Then they were collected, fixed, treated with 0.5% Triton^TM X-100 and stained with Alexa Fluor® 647 Rabbit monoclonal Anti-PD-L1 (ab215251) and FITC Rabbit monoclonal anti-c-Myc (ab223913).
(§3) We also checked results performing ELISA tests. For ELISA tests, lysates were collected, protein quantification was carried out by Bradford test and, then, PD-L1 and c-Myc were quantified using Human PD-L1 ELISA Kit 28-8 (ab214565) and c-Myc (Total) Human ELISA Kit (KHO2041), respectively, according to the manufacturer’s instructions.

PD-L1 = PD-L1 (Homo sapiens, UniProt Q9NZQ7); assay: PD-L1 quantification by flow cytometry in A-549; format: cell-based; design: endogenous in cells; host or cells: A-549 cancer cells; settings: A-549, 10 μM, 24 h, referred to control (DMSO)
Description: as §1, §2, §3

HMEC-1 cells = assay: Tube formation inhibition assay; format: cell-based, human; settings: HMEC-1 on Matrigel, 20 h incubation; average of three experiments
Description: HT-29, MCF-7, HeLa, A549 and HEK-293 cell lines were maintained in Dulbecco’s modified Eagle’s medium (DMEM) containing glucose (1 g/L), glutamine (2 mM), penicillin (50 μg/mL), streptomycin (50 μg/mL), and amphotericin B (1.25 μg/mL), supplemented with 10% FBS. HMEC-1 cell line was maintained in Dulbecco’s modified Eagle’s medium (DMEM)/low glucose containing glutamine (2 mM), penicillin (50 μg/mL), streptomycin (50 μg/mL), and amphotericin B (1.25 μg/mL), supplemented with 10% FBS. For the development of tube formation assays in Matrigel, HMEC-1 cells were cultured in EGM-2MV Medium supplemented with EGM-2MV SingleQuots.
Wells of an IBIDI μ-slide angiogenesis (IBIDI, Martinsried, Germany) were coated with 12 μL of Matrigel® (10 mg/mL, BD Biosciences) at 4 °C. After gelatinization at 37 °C for 30 min, HMEC-1 cells were seeded at 2 × 10^4 cells/well in 35 μL of culture medium on top of the Matrigel and were incubated 30 min at 37 °C while are attached. Then, compounds were added dissolved in 35 μL of culture medium and after 20 h of incubation at 37 °C, tube destruction was evaluated.

c-Myc [2] = assay: c-Myc quantification by flow cytometry in HT-29; format: cell-based, human; settings: HT-29, 10 μM, 24 h, referred to control (DMSO)
Description: as §1, §2, §3

VEGFR-2 = VEGFR-2 (Homo sapiens, UniProt P35968); assay: VEGFR-2 quantification by flow cytometry in HMEC-1; format: cell-based; design: Both membrane and total VEGFR-2 were relatively determined using dimethyl sulfoxide (DMSO) treated cells as a negative control; endogenous in cells; host or cells: HMEC-1 (human microvascular endothelial cells); settings: 10 µM, 24 h, relative to DMSO control
VEGFR-2, sequence (P35968 20-1356): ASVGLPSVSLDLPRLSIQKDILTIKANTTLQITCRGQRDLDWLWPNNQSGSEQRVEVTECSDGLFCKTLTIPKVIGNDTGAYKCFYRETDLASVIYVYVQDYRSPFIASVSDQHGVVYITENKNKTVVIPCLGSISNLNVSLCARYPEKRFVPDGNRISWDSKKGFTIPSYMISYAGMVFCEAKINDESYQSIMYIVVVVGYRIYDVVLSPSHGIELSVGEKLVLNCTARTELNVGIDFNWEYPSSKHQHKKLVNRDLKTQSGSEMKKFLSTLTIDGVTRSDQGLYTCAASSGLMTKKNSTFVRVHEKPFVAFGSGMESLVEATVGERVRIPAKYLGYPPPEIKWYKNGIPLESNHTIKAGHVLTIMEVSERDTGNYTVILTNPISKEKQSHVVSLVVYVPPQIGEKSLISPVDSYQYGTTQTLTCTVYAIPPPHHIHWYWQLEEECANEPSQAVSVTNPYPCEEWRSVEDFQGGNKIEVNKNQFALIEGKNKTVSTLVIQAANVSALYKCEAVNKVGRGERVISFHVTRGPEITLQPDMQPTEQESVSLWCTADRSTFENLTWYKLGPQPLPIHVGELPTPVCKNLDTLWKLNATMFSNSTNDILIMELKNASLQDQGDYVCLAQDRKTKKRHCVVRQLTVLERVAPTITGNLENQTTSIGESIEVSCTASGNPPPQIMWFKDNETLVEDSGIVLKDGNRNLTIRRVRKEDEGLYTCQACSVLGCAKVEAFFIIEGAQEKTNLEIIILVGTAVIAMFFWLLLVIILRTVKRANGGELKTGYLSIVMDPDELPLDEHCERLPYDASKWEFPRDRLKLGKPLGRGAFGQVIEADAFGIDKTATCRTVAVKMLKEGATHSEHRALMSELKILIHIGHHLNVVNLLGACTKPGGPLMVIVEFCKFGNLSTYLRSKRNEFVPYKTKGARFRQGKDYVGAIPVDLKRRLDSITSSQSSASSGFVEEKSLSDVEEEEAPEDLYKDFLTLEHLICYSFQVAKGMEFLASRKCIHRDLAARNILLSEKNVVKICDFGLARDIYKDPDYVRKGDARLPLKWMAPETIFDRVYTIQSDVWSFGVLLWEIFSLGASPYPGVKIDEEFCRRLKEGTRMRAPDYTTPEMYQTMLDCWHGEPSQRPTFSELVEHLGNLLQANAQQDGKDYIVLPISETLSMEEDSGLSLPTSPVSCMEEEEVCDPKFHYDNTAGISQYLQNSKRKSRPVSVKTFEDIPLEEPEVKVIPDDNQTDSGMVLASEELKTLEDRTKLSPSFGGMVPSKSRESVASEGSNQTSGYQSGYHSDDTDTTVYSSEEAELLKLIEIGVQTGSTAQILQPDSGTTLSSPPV
Description: We performed the study on both a HT-29 cancer cell line and a human microvessel endothelial cell line (HMEC-1). […] The effect of these selected derivatives on VEGFR-2, on HT-29 tumor cell line and on human microvessel endothelial cells (HMEC) was determined by flow cytometry technique. […] For these assays, cells were incubated for 24 h in the presence of the corresponding compounds at 10 µM concentration.

PD-L1, sequence (Q9NZQ7 19-290): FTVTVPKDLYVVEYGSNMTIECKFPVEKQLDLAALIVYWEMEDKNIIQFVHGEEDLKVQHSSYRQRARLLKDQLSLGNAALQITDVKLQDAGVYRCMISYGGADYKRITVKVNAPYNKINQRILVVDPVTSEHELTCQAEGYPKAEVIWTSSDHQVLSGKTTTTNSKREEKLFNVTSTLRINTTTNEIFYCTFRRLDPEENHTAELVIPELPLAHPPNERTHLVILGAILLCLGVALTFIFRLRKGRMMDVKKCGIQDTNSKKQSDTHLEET

PD-L1 (%) relative expression (PD-L1): 23 ± 8%
melting point: 173 °C
Membrane VEGFR-2 (%) (VEGFR-2): 45 ± 8%
Total VEGFR-2 (%) (VEGFR-2): 59 ± 5%
SMILES: COc1ccc(/C=C\c2cccc(NC(=O)Nc3ccc(Br)cc3)c2)cc1 [Compound 16]
c-Myc (%) relative expression (c-Myc [1]): 29 ± 5%
Minimum Active Conc. (inhibition of tube formation) (HMEC-1 cells): 10 µM
c-Myc (%) relative expression (c-Myc [2]): 41 ± 10%
